Measurements published in PubChem BioAssay (NCI).
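Five concentrations, 48 hours, 96-well plates. TGI is the concentration that stops growth completely.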

Experiments:
Assay in all cases: NCI tumour cell line growth inhibition, 48 h
CAKI-1 renal = test system: CAKI-1 renal
M14 melanoma = test system: M14 melanoma
786-0 renal = test system: 786-0 renal
UACC-62 melanoma = test system: UACC-62 melanoma
COLO 205 colon = test system: COLO 205 colon
SW-620 colon = test system: SW-620 colon
SNB-75 CNS = test system: SNB-75 CNS
MDA-N = test system: MDA-N
KM12 colon = test system: KM12 colon
HOP-62 NSCLC = test system: HOP-62 NSCLC
HCT-116 colon = test system: HCT-116 colon
BT-549 breast = test system: BT-549 breast
HCT-15 colon = test system: HCT-15 colon
IGROV1 ovarian = test system: IGROV1 ovarian
T-47D breast = test system: T-47D breast
UACC-257 melanoma = test system: UACC-257 melanoma
PC-3 prostate = test system: PC-3 prostate
NCI-H522 lung = test system: NCI-H522 lung
SR leukemia = test system: SR leukemia
SNB-19 CNS = test system: SNB-19 CNS
SK-MEL-2 melanoma = test system: SK-MEL-2 melanoma
K-562 leukemia = test system: K-562 leukemia
UO-31 renal = test system: UO-31 renal
MOLT-4 leukemia = test system: MOLT-4 leukemia
HT29 colon = test system: HT29 colon
OVCAR-3 ovarian = test system: OVCAR-3 ovarian
OVCAR-8 ovarian = test system: OVCAR-8 ovarian
HCC-2998 colon = test system: HCC-2998 colon
ACHN renal = test system: ACHN renal
SK-MEL-5 melanoma = test system: SK-MEL-5 melanoma
DU-145 prostate = test system: DU-145 prostate
CCRF-CEM leukemia = test system: CCRF-CEM leukemia
MDA-MB-435 = test system: MDA-MB-435
EKVX NSCLC = test system: EKVX NSCLC
A549 NSCLC = test system: A549 NSCLC
HS 578T breast = test system: HS 578T breast
SK-OV-3 ovarian = test system: SK-OV-3 ovarian
NCI-H23 lung = test system: NCI-H23 lung
OVCAR-5 ovarian = test system: OVCAR-5 ovarian
NCI-H226 lung = test system: NCI-H226 lung
A498 renal = test system: A498 renal
NCI/ADR-RES ovarian = test system: NCI/ADR-RES ovarian
SF-268 CNS = test system: SF-268 CNS
TK-10 renal = test system: TK-10 renal
RPMI-8226 leukemia = test system: RPMI-8226 leukemia
HOP-92 NSCLC = test system: HOP-92 NSCLC
HL-60(TB) leukemia = test system: HL-60(TB) leukemia
SF-295 CNS = test system: SF-295 CNS
MALME-3M melanoma = test system: MALME-3M melanoma
SF-539 CNS = test system: SF-539 CNS
U251 CNS = test system: U251 CNS
MCF7 breast = test system: MCF7 breast
NCI-H460 lung = test system: NCI-H460 lung
SK-MEL-28 melanoma = test system: SK-MEL-28 melanoma
OVCAR-4 ovarian = test system: OVCAR-4 ovarian
MDA-MB-231 breast = test system: MDA-MB-231 breast
RXF 393 renal = test system: RXF 393 renal
SN12C renal = test system: SN12C renal
LOX IMVI melanoma = test system: LOX IMVI melanoma

C=C1C(=O)O[C@@H]2CC(CO)=C([C@@H](C)CCCO)[C@@H](OC(=O)/C(C)=C\C)[C@H]12
TGI (CAKI-1 renal): 63.4 µM | TGI (M14 melanoma): > 81.4 µM | TGI (786-0 renal): 52.1 µM | TGI (UACC-62 melanoma): 47.8 µM | TGI (COLO 205 colon): 28.7 µM | TGI (SW-620 colon): 44.5 µM | TGI (SNB-75 CNS): > 100 µM | TGI (MDA-N): > 67.3 µM | TGI (KM12 colon): 43.7 µM | TGI (HOP-62 NSCLC): > 100 µM | TGI (HCT-116 colon): 26.5 µM | TGI (BT-549 breast): > 90.6 µM | TGI (HCT-15 colon): 31.3 µM | TGI (IGROV1 ovarian): 35 µM | TGI (T-47D breast): 49.7 µM | TGI (UACC-257 melanoma): 38.1 µM | TGI (PC-3 prostate): 45.7 µM | TGI (NCI-H522 lung): 15.3 µM | TGI (SR leukemia): 8.22 µM | TGI (SNB-19 CNS): > 54.6 µM | TGI (SK-MEL-2 melanoma): 70.5 µM | TGI (K-562 leukemia): 31.2 µM | TGI (UO-31 renal): > 65 µM | TGI (MOLT-4 leukemia): 33.4 µM | TGI (HT29 colon): 26.6 µM | TGI (OVCAR-3 ovarian): 26.2 µM | TGI (OVCAR-8 ovarian): > 76.8 µM | TGI (HCC-2998 colon): 29.6 µM | TGI (ACHN renal): 39.8 µM | TGI (SK-MEL-5 melanoma): 34.6 µM | TGI (DU-145 prostate): 27.7 µM | TGI (CCRF-CEM leukemia): 10 µM | TGI (MDA-MB-435): > 52.4 µM | TGI (EKVX NSCLC): 48.2 µM | TGI (A549 NSCLC): > 71.9 µM | TGI (HS 578T breast): > 100 µM | TGI (SK-OV-3 ovarian): > 100 µM | TGI (NCI-H23 lung): 38.8 µM | TGI (OVCAR-5 ovarian): > 56.9 µM | TGI (NCI-H226 lung): > 62.8 µM | TGI (A498 renal): > 74.1 µM | TGI (NCI/ADR-RES ovarian): 75.4 µM | TGI (SF-268 CNS): 50.2 µM | TGI (TK-10 renal): 45.9 µM | TGI (RPMI-8226 leukemia): 31 µM | TGI (HOP-92 NSCLC): 56.7 µM | TGI (HL-60(TB) leukemia): 4.86 µM | TGI (SF-295 CNS): > 100 µM | TGI (MALME-3M melanoma): 32.5 µM | TGI (SF-539 CNS): > 71.3 µM | TGI (U251 CNS): 37.6 µM | TGI (MCF7 breast): 23.4 µM | TGI (NCI-H460 lung): 48.2 µM | TGI (SK-MEL-28 melanoma): 29.3 µM | TGI (OVCAR-4 ovarian): > 84.9 µM | TGI (MDA-MB-231 breast): 57.2 µM | TGI (RXF 393 renal): 37.7 µM | TGI (SN12C renal): 43.5 µM | TGI (LOX IMVI melanoma): 24.3 µM

COc1ccc2c(C)cc(N/N=C/c3ccc(C)s3)nc2c1
TGI (CAKI-1 renal): 34.4 µM | TGI (M14 melanoma): 23.2 µM | TGI (786-0 renal): 31.6 µM | TGI (UACC-62 melanoma): > 54.6 µM | TGI (COLO 205 colon): 9.24 µM | TGI (SW-620 colon): > 48.4 µM | TGI (SNB-75 CNS): > 83.9 µM | TGI (MDA-N): > 62.7 µM | TGI (KM12 colon): > 57 µM | TGI (HOP-62 NSCLC): 56.9 µM | TGI (HCT-116 colon): > 46.4 µM | TGI (BT-549 breast): 62.8 µM | TGI (HCT-15 colon): 41.3 µM | TGI (IGROV1 ovarian): 37.9 µM | TGI (T-47D breast): 26 µM | TGI (UACC-257 melanoma): > 52.9 µM | TGI (PC-3 prostate): 37.1 µM | TGI (NCI-H522 lung): > 100 µM | TGI (SR leukemia): 31 µM | TGI (SNB-19 CNS): > 67.2 µM | TGI (SK-MEL-2 melanoma): 37.9 µM | TGI (K-562 leukemia): > 100 µM | TGI (UO-31 renal): 35.4 µM | TGI (MOLT-4 leukemia): 36.9 µM | TGI (HT29 colon): 16.7 µM | TGI (OVCAR-3 ovarian): 8.88 µM | TGI (OVCAR-8 ovarian): 51.5 µM | TGI (HCC-2998 colon): 19.6 µM | TGI (ACHN renal): > 52.4 µM | TGI (SK-MEL-5 melanoma): 16 µM | TGI (DU-145 prostate): 23.9 µM | TGI (CCRF-CEM leukemia): > 93.7 µM | TGI (MDA-MB-435): > 52.4 µM | TGI (EKVX NSCLC): 32.2 µM | TGI (A549 NSCLC): 39.7 µM | TGI (HS 578T breast): > 90.9 µM | TGI (SK-OV-3 ovarian): 43.6 µM | TGI (NCI-H23 lung): > 48.8 µM | TGI (OVCAR-5 ovarian): 30.2 µM | TGI (NCI-H226 lung): 51.7 µM | TGI (A498 renal): 52.9 µM | TGI (NCI/ADR-RES ovarian): 73.5 µM | TGI (SF-268 CNS): > 100 µM | TGI (TK-10 renal): > 54.3 µM | TGI (RPMI-8226 leukemia): > 35.7 µM | TGI (HOP-92 NSCLC): > 51.6 µM | TGI (HL-60(TB) leukemia): > 56.2 µM | TGI (SF-295 CNS): 26.8 µM | TGI (MALME-3M melanoma): > 69.6 µM | TGI (SF-539 CNS): 36.5 µM | TGI (U251 CNS): > 48 µM | TGI (MCF7 breast): 25.3 µM | TGI (NCI-H460 lung): 20 µM | TGI (SK-MEL-28 melanoma): > 100 µM | TGI (OVCAR-4 ovarian): > 63.9 µM | TGI (MDA-MB-231 breast): 29.1 µM | TGI (RXF 393 renal): 33.8 µM | TGI (SN12C renal): 37.3 µM | TGI (LOX IMVI melanoma): 11.1 µM
